What was measured:
[1] = target: T1, recombinant human ALK5 (TGF-βR1) protein (Homo sapiens, UniProt P36897); assay: Biochemical ALK5 (TGF-βR1) assay to measure pKi (LANCE Ultra ULight kinase assay); details: apparent pKi from pIC50 by Cheng-Prusoff, read-out: ALK5 pKi (converted)
T1 construct: purchased Life Technologies PR9075A
T1 sequence (P36897 34-503): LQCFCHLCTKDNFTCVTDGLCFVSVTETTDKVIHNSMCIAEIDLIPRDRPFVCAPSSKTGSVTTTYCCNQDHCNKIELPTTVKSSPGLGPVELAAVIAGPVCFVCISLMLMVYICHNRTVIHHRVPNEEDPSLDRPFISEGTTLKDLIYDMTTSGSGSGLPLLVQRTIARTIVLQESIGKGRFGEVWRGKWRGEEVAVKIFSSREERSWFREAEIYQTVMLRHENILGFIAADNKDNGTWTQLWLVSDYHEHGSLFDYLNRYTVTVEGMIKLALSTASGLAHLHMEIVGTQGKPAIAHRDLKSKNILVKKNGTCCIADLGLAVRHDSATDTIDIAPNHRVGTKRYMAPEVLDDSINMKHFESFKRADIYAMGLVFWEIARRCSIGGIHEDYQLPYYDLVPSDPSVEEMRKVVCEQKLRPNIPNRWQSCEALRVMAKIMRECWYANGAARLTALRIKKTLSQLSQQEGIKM
Outline: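 Compounds (10 μM to 25 pM) preincubated 60 minutes at room temperature with enzyme, then reaction run 60 minutes at 37° C with ATP added as 125 μM (5× final). Stopped with EDTA plus Eu-anti-phospho-Topoisomerase 2-alpha (Thr1342) antibody, TR-FRET read at 665 nm; pIC50 converted to pKi via Cheng-Prusoff.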

[2] = tested on: TGF-β-stimulated SMAD3 phosphorylation in BEAS-2B cells; assay: Cellular ALK5 potency assay, inhibition of TGF-β stimulated pSMAD3 formation in BEAS-2B cells; type: cell-based; details: Homo sapiens; inhibition of TGF-β stimulated pSMAD3 formation, BEAS-2B cells; read-out: BEAS2B pIC50 (converted)
Outline: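 BEAS-2B human lung epithelial cells pre-treated 1 h at 37° C with compound in HBSS/25 mM HEPES/1% BSA, then stimulated 30 min with 10 ng/mL TGF-β (final). Lysates assayed for pSMAD3 by AlphaLISA; pIC50 from dose-dependent change versus stimulated untreated cells.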

Row | SMILES | Ki [1] [nM] | IC50 [2] [nM]
1 | Cc1cccc(-c2n[nH]cc2-c2ccc3ncc(-c4cn(-c5ccccc5)nn4)cc3n2)n1 [Compound 111, 2-[3-(6-methyl-2-pyridyl)-1H-pyrazol-4-yl]-7-(1-phenyltriazol-4-yl)-1,5-naphthyridine] | 0.0398 to 0.316 | < 20
2 | Cc1cccc(-c2[nH]cnc2-c2ccc3ncc(-c4ncc(C5=CCNC5)s4)cc3c2)n1 [Compound 1118, 5-(2,5-dihydro-1H-pyrrol-3-yl)-2-[6-[5-(6-methyl-2-pyridyl)-1H-imidazol-4-yl]-3-quinolyl]thiazole] | 0.0398 to 0.316 | < 20
3 | Cc1cccc(-c2n[nH]cc2-c2ccc3ncc(-c4cn(Cc5cnc6c(c5)CNCC6)nn4)cc3n2)n1 [Compound 325, 2-[3-(6-methyl-2-pyridyl)-1H-pyrazol-4-yl]-7-[1-(5,6,7,8-tetrahydro-1,6-naphthyridin-3-ylmethyl)triazol-4-yl]-1,5-naphthyridine] | < 0.0316 | 200 to 1260
4 | Cc1nc(-c2n[nH]cc2-c2ccc3ncc(N4CCC(N(C)C)CC4)cc3n2)ccc1F [Compound 514, 1-[6-[3-(5-fluoro-6-methyl-2-pyridyl)-1H-pyrazol-4-yl]-1,5-naphthyridin-3-yl]-N,N-dimethyl-piperidin-4-amine] | 0.0398 to 0.316 | 25.1 to 158
5 | Cc1cccc(-c2n[nH]cc2-c2ccc3ncc(-c4nc5n(n4)CCNC5)cc3n2)n1 [Compound 67, 2-[3-(6-methyl-2-pyridyl)-1H-pyrazol-4-yl]-7-(5,6,7,8-tetrahydro-[1,2,4]triazolo[1,5-a]pyrazin-2-yl)-1,5-naphthyridine] | 0.0398 to 0.316 | 25.1 to 158
6 | Cc1cccc(-c2[nH]ncc2-c2ccc3nccc(C(=O)OC[C@H]4CCCCN4)c3c2)n1 [Compound 1095, [(2R)-2-piperidyl]methyl 6-[5-(6-methyl-2-pyridyl)-1H-pyrazol-4-yl]quinoline-4-carboxylate] | 0.398 to 3.16 | 25.1 to 158
7 | Cc1cccc(-c2n[nH]cc2-c2ccc3ncc(C4=CCC(NC(C)C)CC4)cc3n2)n1 (centres unmarked) [Compound 417, N-isopropyl-4-[6-[3-(6-methyl-2-pyridyl)-1H-pyrazol-4-yl]-1,5-naphthyridin-3-yl]cyclohex-3-en-1-amine] | < 0.0316 | 25.1 to 158
8 | Cc1cccc(-c2[nH]nnc2-c2ccc3ncc(N4CCCNCC4)cc3n2)n1 [Compound 557, 7-(1,4-diazepan-1-yl)-2-[5-(6-methyl-2-pyridyl)-1H-triazol-4-yl]-1,5-naphthyridine] | 3.98 to 31.6 | 1580 to 10000
9 | Cc1cccc(-c2n[nH]cc2-c2ccc3ncc(-c4cnn(C5COC5)c4)cc3n2)n1 [Compound 669, 2-[3-(6-methyl-2-pyridyl)-1H-pyrazol-4-yl]-7-[1-(oxetan-3-yl)pyrazol-4-yl]-1,5-naphthyridine] | < 0.0316 | < 20
10 | Cc1nc(-c2[nH]cnc2-c2ccc3ncc(-c4cn[nH]c4)cc3c2)ccc1F [Compound 423, 6-[5-(5-fluoro-6-methyl-2-pyridyl)-1H-imidazol-4-yl]-3-(1H-pyrazol-4-yl)quinoline] | < 0.0316 | < 20
11 | Cc1cccc(-c2n[nH]cc2-c2ccc3ncc(-c4cncc(N)n4)cc3n2)n1 [Compound 235, 6-[6-[3-(6-methyl-2-pyridyl)-1H-pyrazol-4-yl]-1,5-naphthyridin-3-yl]pyrazin-2-amine] | 0.0398 to 0.316 | 25.1 to 158
12 | CCc1cccc(-c2n[nH]cc2-c2ccc3ncc(-c4ccn(CCNC)n4)cc3n2)n1 [Compound 92, 2-(3-(6-(3-(6-ethylpyridin-2-yl)-1H-pyrazol-4-yl)-1,5-naphthyridin-3-yl)-1H-pyrazol-1-yl)-N-methylethan-1-amine] | 0.0398 to 0.316 | 25.1 to 158
13 | Cc1cccc(-c2n[nH]cc2-c2ccc3nccc(N)c3n2)n1 [Compound 835, 6-[3-(6-methyl-2-pyridyl)-1H-pyrazol-4-yl]-1,5-naphthyridin-4-amine] | 0.398 to 3.16 | 25.1 to 158
14 | Cc1cccc(-c2n[nH]cc2-c2ccc3nccc(CN4CCN(CC(=O)O)CC4)c3n2)n1 [Compound 822, 2-[4-[[6-[3-(6-methyl-2-pyridyl)-1H-pyrazol-4-yl]-1,5-naphthyridin-4-yl]methyl]piperazin-1-yl]acetic acid] | 0.398 to 3.16 | 25.1 to 158
15 | Cc1nc(-c2n[nH]cc2-c2ccc3ncc(-c4cnn(C(=O)OC(C)C)c4)cc3n2)ccc1F [Compound 599, isopropyl 4-[6-[3-(5-fluoro-6-methyl-2-pyridyl)-1H-pyrazol-4-yl]-1,5-naphthyridin-3-yl]pyrazole-1-carboxylate] | < 0.0316 | < 20
16 | CNCC1CN(c2cnc3ccc(-c4c[nH]nc4-c4cccc(C)n4)nc3c2)C1 [Compound 672, N-methyl-1-[1-[6-[3-(6-methyl-2-pyridyl)-1H-pyrazol-4-yl]-1,5-naphthyridin-3-yl]azetidin-3-yl]methanamine] | 0.0398 to 0.316 | 25.1 to 158

Continued, in another order:

Row | Ki [1] [nM] | SMILES | IC50 [2] [nM]
17 | 0.0398 to 0.316 | Cc1cccc(-c2[nH]cnc2-c2ccc3ncc(-c4csc(C(=O)O[C@@H]5CCN(C)C5)c4)cc3c2)n1 [Compound 750, [(3R)-1-methylpyrrolidin-3-yl] 4-[6-[5-(6-methyl-2-pyridyl)-1H-imidazol-4-yl]-3-quinolyl]thiophene-2-carboxylate] | < 20
18 | 0.0398 to 0.316 | Cc1cccc(-c2[nH]cnc2-c2ccc3ncc(C(=O)OCCCN4CCNCC4)cc3c2)n1 [Compound 897, 3-(piperazin-1-yl)propyl 6-(5-(6-methylpyridin-2-yl)-1H-imidazol-4-yl)quinoline-3-carboxylate] | 25.1 to 158
19 | 0.0398 to 0.316 | Cc1cccc(-c2[nH]cnc2-c2ccc3ncc(-c4ccnc(C(=O)OCC5CNC5)c4)cc3c2)n1 [Compound 1086, azetidin-3-ylmethyl 4-[6-[5-(6-methyl-2-pyridyl)-1H-imidazol-4-yl]-3-quinolyl]pyridine-2-carboxylate] | 200 to 1260
20 | 0.0398 to 0.316 | COC(=O)[C@@H]1CN(CCNc2cnc3ccc(-c4nc[nH]c4-c4cccc(C)n4)cc3c2)CCN1 [Compound 717, methyl (2S)-4-[2-[[6-[5-(6-methyl-2-pyridyl)-1H-imidazol-4-yl]-3-quinolyl]amino]ethyl]piperazine-2-carboxylate] | 25.1 to 158
21 | 0.0398 to 0.316 | CNC(=O)[C@@H]1CN(c2cnc3ccc(-c4nc[nH]c4-c4cccc(C)n4)cc3c2)CCN1 [Compound 384, (2S)-N-methyl-4-[6-[5-(6-methyl-2-pyridyl)-1H-imidazol-4-yl]-3-quinolyl]piperazine-2-carboxamide] | 200 to 1260
22 | 0.0398 to 0.316 | Cc1cccc(-c2[nH]cnc2-c2ccc3ncc(C(=O)OC[C@@H]4CCC[C@H](N)C4)cc3c2)n1 (racemic) [Compound 767, [rac-(1R,3S)-3-aminocyclohexyl]methyl 6-[5-(6-methyl-2-pyridyl)-1H-imidazol-4-yl]quinoline-3-carboxylate] | 25.1 to 158
23 | 0.0398 to 0.316 | Cc1cccc(-c2[nH]cnc2-c2ccc3ncc(NC(=O)C4CNC4)cc3c2)n1 [Compound 579, N-[6-[5-(6-methyl-2-pyridyl)-1H-imidazol-4-yl]-3-quinolyl]azetidine-3-carboxamide] | 1580 to 10000
24 | 0.0398 to 0.316 | Cc1cccc(-c2[nH]cnc2-c2ccc3ncc(NC(=O)C4CCNCC4)cc3c2)n1 [Compound 649, N-[6-[5-(6-methyl-2-pyridyl)-1H-imidazol-4-yl]-3-quinolyl]piperidine-4-carboxamide] | 200 to 1260
25 | 0.0398 to 0.316 | Cc1cccc(-c2[nH]cnc2-c2ccc3ncc(C4=CCCNC4)cc3c2)n1 [Compound 259, 6-[5-(6-methyl-2-pyridyl)-1H-imidazol-4-yl]-3-(1,2,3,6-tetrahydropyridin-5-yl)quinoline] | < 20
26 | 0.0398 to 0.316 | CNCCn1ccc(-c2cnc3ccc(-c4nc[nH]c4-c4cccc(C)n4)cc3c2)n1 [Compound 494, N-methyl-2-[3-[6-[5-(6-methyl-2-pyridyl)-1H-imidazol-4-yl]-3-quinolyl]pyrazol-1-yl]ethanamine] | 25.1 to 158
27 | 0.0398 to 0.316 | Cc1cccc(-c2[nH]cnc2-c2ccc3ncc(-c4cccc(N5CCNCC5)n4)cc3c2)n1 [Compound 1100, 6-[5-(6-methyl-2-pyridyl)-1H-imidazol-4-yl]-3-(6-piperazin-1-yl-2-pyridyl)quinoline] | < 20
28 | 0.0398 to 0.316 | Cc1cccc(-c2[nH]cnc2-c2ccc3ncc(C(=O)OCCCN4CCC5(CC4)CNC5)cc3c2)n1 [Compound 904, 3-(2,7-diazaspiro[3.5]nonan-7-yl)propyl 6-(5-(6-methylpyridin-2-yl)-1H-imidazol-4-yl)quinoline-3-carboxylate] | 200 to 1260

— patent US11590116B2 (THERAVANCE BIOPHARMA R&D IP, LLC, priority 2019, dated 2023)
